Assay results taken from patent US10010576B2, “Method of treatment” (Hexima Limited, priority 2014, dated 2018).

Tests used:
[1] = Penetration through human nails (nail adapter, wetted cotton bud receptor, RP-HPLC); format: in vitro ADME
Protocol: Penetration of NaD1 through human nails was measured according to the method of Hui et al. (2002) J Pharm Sci 91(1):189-195. Human toenails were obtained from ScienceCare (USA) and washed with phosphate buffered saline (details, PBS) before being placed on a kimwipe that had been soaked in PBS for 3 h to rehydrate the nail. […]
The cotton bud in contact with the underside of the nail was removed after 24 h and every 24 h following. Protein that had passed through the nail was recovered from the cotton bud by washing twice with 500 μL of 0.1% v/v trifluoroacetic acid. Recovered protein was quantified using RP-HPLC.

[2] = test system: C. albicans; assay: Antifungal growth inhibition assay in 96 well microtitre plates (A595); format: cell-based, Candida albicans
Protocol: (§1) The inhibitory effects of the plant defensins on the growth of Trichophyton rubrum, T. interdigitale, Microsporum fulvum and C. albicans (obtained from the National Mycology Reference Centre, South Australia Pathology at the Women's and Children's Hospital, Adelaide, Australia) are measured essentially as described by Broekaert et al. (1990) FEMS Microbiol Lett 69:55-59. Spores of T. rubrum, T. interdigitale and M. fulvum are isolated from sporulating fungus growing on 1⁄2 strength Sabouraud dextrose agar (SDA). Spores were removed from the plates by the addition of 1⁄2 strength potato dextrose broth (PDB). C. albicans cells are grown in Yeast Peptone Broth (YPD) for 16 h. Spore and cell concentrations are measured using a hemocytometer. Antifungal assays are conducted in 96 well microtitre plates essentially as herein described. Wells are loaded with 20 μm L of filter sterilized (0.22 μm syringe filter, Millipore) defensin (10× stock for each final concentration) or water and 80 μm L of 5×10^4 spores/mL (T. rubrum, T. interdigitale, M. fulvum) or 5,000 cells/mL (C. albicans) in 1⁄2 strength PDB. The plates are incubated at 30° C. Fungal growth is assayed by measuring optical density at 595 nm ([…]) using a microtitre plate reader (SpectraMax Pro M2; Molecular Devices. Growth is allowed to proceed until the optical density (OD) of the fungus in the absence of any test defensin reached an OD of 0.2. Each test is performed in duplicate.

[3] = test system: Trichophyton rubrum, T. interdigitale, Microsporum fulvum and C. albicans; assay: Inhibition assays, summary across the range of fungal pathogens; format: cell-based; conditions: summary of Table 3
Protocol: as §1

[4] = test system: Human monocytic lymphoma (U937) cells; format: cell-based
Protocol: Human monocytic lymphoma (U937) cells are cultured in RPMI-1640 medium. All culture media are supplemented with 5-10% v/v fetal calf serum, 100 U/ml of penicillin, and 100 μg/ml of streptomycin. Cell lines are cultured at 37° C. in a humidified atmosphere containing 5% v/v CO2. Adherent cell lines are detached from the flask by adding a mixture containing 0.25% v/v trypsin and […] EDTA. A flow cytometry-based propidium iodide (PI) uptake assay is performed to analyze the ability of plant defensins to permeabilize U937 cells (essentially as described in Poon et al, 2014). Briefly, cells are suspended to 1×10^6 cells/ml in 0.1% v/v BSA/RPMI-1640 and incubated with plant defensins (10 μM) at 37° C. for 30 min Samples are added to PBS containing a final concentration of 1 μg/ml PI and placed on ice. Samples are then analyzed immediately using the BD FACSCanto II Flow Cytometer and BD FACSDiva software v6.1.1. The resultant flow cytometry data is analyzed using FlowJo software v8.8.6. Cells are gated appropriately based on forward scatter and side scatter and cell permeabilization is defined by PI-positive staining.

[5] = test system: Trichophyton rubrum; assay: Antifungal growth inhibition assay in 96 well microtitre plates (A595); format: cell-based
Protocol: as §1

[6] = test system: Microsporum fulvum; assay: as above; format: cell-based
Protocol: as §1

[7] = test system: T. interdigitale; assay: as above; format: cell-based, Trichophyton interdigitale
Protocol: as §1

[8] = Day 3, 10 uL of 10% solution, 0.8 cm^2, daily application
[9] = Day 6, 10 uL of 10% solution, 0.8 cm^2, daily application
[10] = Day 9, 10 uL of 10% solution, 0.8 cm^2, daily application
[11] = Day 12, 10 uL of 10% solution, 0.8 cm^2, daily application
[12] = Day 15, 10 uL of 10% solution, 0.8 cm^2, daily application

With `Cc1cc(C2CCCCC2)n(O)c(=O)c1` [Ciclopirox, ciclopirox] the “Cumulative amount through nail” value ([1]; human, 3 day, 10 %) was 1 µg, the “Cumulative amount through nail, percent (line without head; fits percent of cumulative applied dose)” value ([1]; human, 3 day, 10 %) was 0.03% and the “Cumulative amount through nail” value ([1]; human, 6 day, 10 %) was 2 µg. The “Cumulative amount through nail, percent (line without head; fits percent of cumulative applied dose)” value ([1]; human, 6 day, 10 %) was 0.03%, the “Cumulative amount through nail” value ([1]; human, 9 day, 10 %) was 4 µg and the “Cumulative amount through nail, percent (line without head; fits percent of cumulative applied dose)” value ([1]; human, 9 day, 10 %) was 0.04%. For the same compound, the “Cumulative amount through nail” value ([1]; human, 12 day, 10 %) was 6 µg, the “Cumulative amount through nail, percent (line without head; fits percent of cumulative applied dose)” value ([1]; human, 12 day, 10 %) was 0.05% and the “Cumulative amount through nail” value ([1]; human, 15 day, 10 %) was 9 µg. For the same compound, the “Cumulative amount through nail, percent (line without head; fits percent of cumulative applied dose)” value ([1]; human, 15 day, 10 %) was 0.06%.
With `C=C1CCN([C@H](C)[C@](O)(Cn2cncn2)c2ccc(F)cc2F)CC1` [Efinaconazole, efinaconazole] the “Cumulative amount through nail” value ([1]; human, 1 day, 10 %) was 0.4 µg, the “Cumulative amount through nail, percent (line without head; fits percent of applied dose)” value ([1]; human, 1 day, 10 %) was 0.2% and the “Cumulative amount through nail” value ([1]; human, 2 day, 10 %) was 0.7 µg. For the same compound, the “Cumulative amount through nail, percent (line without head; fits percent of applied dose)” value ([1]; human, 2 day, 10 %) was 0.4%, the “Cumulative amount through nail” value ([1]; human, 3 day, 10 %) was 1.3 µg and the “Cumulative amount through nail, percent (line without head; fits percent of applied dose)” value ([1]; human, 3 day, 10 %) was 0.7%. For the same compound, the “Cumulative amount through nail” value ([1]; human, 4 day, 10 %) was 1.6 µg, the “Cumulative amount through nail, percent (line without head; fits percent of applied dose)” value ([1]; human, 4 day, 10 %) was 0.8% and the “Cumulative amount through nail” value ([1]; human, 6 day, 10 %) was 2.6 µg. The “Cumulative amount through nail, percent (line without head; fits percent of applied dose)” value ([1]; human, 6 day, 10 %) was 1.3%, the “Cumulative amount through nail” value ([1]; human, 9 day, 10 %) was 4.0 µg and the “Cumulative amount through nail, percent (line without head; fits percent of applied dose)” value ([1]; human, 9 day, 10 %) was 2.0%. For the same compound, the “Cumulative amount through nail” value ([1]; human, 12 day, 10 %) was 5.4 µg, the “Cumulative amount through nail, percent (line without head; fits percent of applied dose)” value ([1]; human, 12 day, 10 %) was 2.7% and the “Cumulative amount through nail” value ([1]; human, 15 day, 10 %) was 6.5 µg. The “Cumulative amount through nail, percent (line without head; fits percent of applied dose)” value ([1]; human, 15 day, 10 %) was 3.3%.
For `OB1OCc2cc(F)ccc21` [Tavaborole, tavaborole], the “Cumulative amount through nail” value [1, 8] was 60 µg, the “Cumulative amount through nail, percent (line without head; fits percent of cumulative applied dose)” value [1, 8] was 2.0% and the “Cumulative amount through nail” value [1, 9] was 220 µg. The “Cumulative amount through nail, percent (line without head; fits percent of cumulative applied dose)” value [1, 9] was 3.7%, the “Cumulative amount through nail” value [1, 10] was 610 µg and the “Cumulative amount through nail, percent (line without head; fits percent of cumulative applied dose)” value [1, 10] was 6.8%. The “Cumulative amount through nail” value [1, 11] was 1280 µg, the “Cumulative amount through nail, percent (line without head; fits percent of cumulative applied dose)” value [1, 11] was 10.7% and the “Cumulative amount through nail” value [1, 12] was 2240 µg. For the same compound, the “Cumulative amount through nail, percent (line without head; fits percent of cumulative applied dose)” value [1, 12] was 14.9%.
In the case of “HXL001: Class I plant defensin from Zea mays, SEQ ID NO:4 (RHCLSQSHRFKGLCMSSNNCANVCQTENFPGGECKAEGATRKCFCKKIC; HXL001 Zea mays)”, the “IC50 against C. albicans” value [2] is reported as 35 µg/mL, the “Antifungal activity across the range of fungal pathogens” value (“Antifungal activity across the range” for short) [3] is reported as “did not display any activity at the concentrations tested” and the “Cells permeabilized (PI-positive)” value [4] is reported as “less than 2%”. For the same compound, the “IC50 against T. rubrum” value [5] was >100 µg/mL and the “IC50 against M. fulvum” value [6] was >100 µg/mL.
With “HXL002: Class I plant defensin from Triticum aestivum, SEQ ID NO:5 (RDCLSQSHKFKGACLSSSNCAAVCRTENFPDGECHTHNFARKCFCKRAC; HXL002 Triticum aestivum)” the “IC50 against C. albicans” value [2] was 35 µg/mL, the “Inhibition of C. albicans” value [2] was “very poor inhibitors” and the “Cells permeabilized (PI-positive)” value [4] was “less than 2%”. For the same compound, the “IC50 against M. fulvum” value [6] was 50 µg/mL and the “Inhibition of M. fulvum” value [6] was “very poor inhibitors”.
With “HXL003: Class I plant defensin from Triticum aestivum, SEQ ID NO:6 (ARDCTSQSHKFVGLCLSDRNCASVCLTEYFTGGKCDHRRCVCTKGC; HXL003 Triticum aestivum)” the “IC50 against C. albicans” value [2] was >100 µg/mL and the “IC50 against M. fulvum” value [6] was >100 µg/mL.
For “HXL005: Class I plant defensin from Taraxcum kok-saghyz, SEQ ID NO:8 (Table 1) (KMCQTTSHAFSCVNDSGCSGSCEKQGFASGKCDGVRRRCTCYKKC; HXL005 Taraxcum kok-saghyz)”, the “IC50 against C. albicans” value [2] was 22 µg/mL, the “Antifungal activity across the range” value [3] was “the most effective plant defensins across the range of fungal pathogens” and the “IC50 against T. interdigitale” value [7] was 3.5 µg/mL. For the same compound, the “Cells permeabilized (PI-positive)” value [4] was ~25%, the “IC50 against T. rubrum” value [5] was 3 µg/mL and the “IC50 against M. fulvum” value [6] was 5 µg/mL.
For “HXL009: Class I plant defensin from Zea mays, SEQ ID NO:9 (Table 1) (TVCMRHNNFYHGPCMSNKDCANSCVQHNLGVGGYCRGKIPFNKECMCTFEC; HXL009 Zea mays)”, the “IC50 against C. albicans” value [2] was >100 µg/mL, the “Antifungal activity across the range” value [3] was “did not display any activity at the concentrations tested” and the “Cells permeabilized (PI-positive)” value [4] was “less than 2%”. The “IC50 against M. fulvum” value [6] was >100 µg/mL.
In the case of “HXL013: Class I plant defensin from Glycine max, SEQ ID NO:11 (KDCLTRRHGFQGRCLFDRQCAHVCRSDGFIGGQCRGPLRKCFCSRPC; HXL013 Glycine max)”, the “IC50 against C. albicans” value [2] is reported as 20 µg/mL, the “Antifungal activity across the range” value [3] is reported as “intermediate activity” and the “Cells permeabilized (PI-positive)” value [4] is reported as 5%. For the same compound, the “IC50 against T. rubrum” value [5] was 22 µg/mL and the “IC50 against M. fulvum” value [6] was 5.5 µg/mL.
In the case of “HXL015: Class I plant defensin from Oryza sativa, SEQ ID NO:12 (RHCLSQSHRFKGMCVSSNNCANVCRTESFPDGECKSHGLERKCFCKKVC; HXL015 Oryza sativa)”, the “Antifungal activity across the range” value [3] is reported as “intermediate activity”, the “IC50 against T. interdigitale” value [7] is reported as 3.5 µg/mL and the “IC50 against T. rubrum” value [5] is reported as 10 µg/mL. For the same compound, the “IC50 against M. fulvum” value [6] was 12.5 µg/mL.
With “HXL035: Class I plant defensin from Picramnia pentandra, SEQ ID NO:2 (KVCTKPSKFFKGLCGFDRDCTVACKKEGLASGFCQNKGFFNVVCVCRKPC; HXL035 Picramnia pentandra)” the “IC50 against C. albicans” value [2] was 18 µg/mL, the “Antifungal activity across the range” value [3] was “the most effective plant defensins across the range of fungal pathogens” and the “IC50 against T. interdigitale” value [7] was 1 µg/mL. For the same compound, the “IC50 against T. rubrum” value [5] was 2 µg/mL and the “IC50 against M. fulvum” value [6] was 2 µg/mL.
For “HXP4: Artificial defensin variant, Loop1B from a Class I defensin replaces that of a Solanaceous Class II defensin, SEQ ID NO:21 (RECKTESHRFKGPCITKPPCRKACISEKFTDGHCSKILRRCLCTKPC; HXP4)”, the “Cells permeabilized (PI-positive)” value [4] was 13%.
